Experimental data published in paper PMC11187573, “Identification of SARS-CoV-2 Mpro inhibitors through deep reinforcement learning for de novo drug design and computational chemistry approaches” (RSC Medicinal Chemistry, 2024).
pIC50: −log10 of the molar value. Like-named read-outs stand apart in the source and are kept apart here.

Tests used:
SARS-CoV-2 main protease = format: biochemical; settings: Docking validation set, class assigned from COVID Moonshot IC50
[1] = tested on: SARS, SARS-CoV-2 and MERS Mpro; settings: cited from earlier work
Mpro = settings: ML dataset, cited from earlier work
[2] = Origin COVID_Moonshot, ref COVID Moonshot

Compound | pIC50 [1, 2] | pIC50 (Mpro; [2]) | also measured
Cn1ccc(C(=O)NC[C@@H]2CCCO2)n1 [AAR-POS-0daf6b7e-23, Cn1ccc(C(=O)NC[C@@H]2CCCO2)n1] |  |  | label (active / inactive) (SARS-CoV-2 main protease): inactive
CN(C)c1ccc(N(Cc2cccc(Cl)c2)C(=O)Cn2nnc3ccccc32)cc1 [ALP-POS-6d04362c-2, CN(C)c(cc1)ccc1N(Cc1cccc(Cl)c1)C(Cn1nnc2c1cccc2)=O, reference compound] | 6.30 | 6.35 | 
O=C(Nc1cncc2ccccc12)C1CCCc2ccc(Cl)cc21 (stereo not shown) [ALP-POS-477dc5b7-1, O=C(C(CCC1)c2c1ccc(Cl)c2)Nc1cncc2ccccc12, reference compound] | 6.49 | 6.51 | 
O=C1N(Cc2cccc(Cl)c2)CCN1c1nccc2[nH]ncc12 [ALP-POS-91609ae9-3, O=C(N(Cc1cccc(Cl)c1)CC1)N1c1nccc2c1cn[nH]2, reference compound] | 5.34 | 5.43 | 
CC(C)Nc1cccnc1N1CCN(C(=O)c2cc3cc(NS(C)(=O)=O)ccc3[nH]2)CC1 [CHEMBL929, CC(C)Nc1cccnc1N(CC1)CCN1C(c1cc(cc(cc2)NS(C)(=O)=O)c2[nH]1)=O, reference compound] |  |  | pIC50 ([1]; Origin ChEMBL, ref ChEMBL): 5.40; pIC50 (Mpro; Origin ChEMBL, ref ChEMBL): 5.40
Cc1c(-c2cnccn2)ssc1=S [CHEMBL178459, CC1=C(c2nccnc2)SSC1=S, reference compound] |  |  | pIC50 ([1]; Origin ChEMBL, ref ChEMBL): 6.38; pIC50 (Mpro; Origin ChEMBL, ref ChEMBL): 6.38
COc1nc2ccc(Br)cc2cc1[C@@H](c1ccccc1)[C@@](O)(CCN(C)C)c1cccc2ccccc12 [CHEMBL376488, CN(C)CC[C@]([C@H](c1ccccc1)c(cc(cc(cc1)Br)c1n1)c1OC)(c1cccc2ccccc12)O, reference compound] |  |  | pIC50 ([1]; Origin ChEMBL, ref ChEMBL): 5.36; pIC50 (Mpro; Origin ChEMBL, ref ChEMBL): 5.36
CC(CN1CC(=O)NC(=O)C1)N1CC(=O)NC(=O)C1 (stereo not shown) [CHEMBL444186, CC(CN(CC(N1)=O)CC1=O)N(CC(N1)=O)CC1=O, reference compound] |  |  | pIC50 ([1]; Origin ChEMBL, ref ChEMBL): 5.50; pIC50 (Mpro; Origin ChEMBL, ref ChEMBL): 5.50
Nc1ccc(O)c2ncccc12 [CHEMBL449298, Nc(c1cccnc11)ccc1O, reference compound] |  |  | pIC50 ([1]; Origin ChEMBL, ref ChEMBL): 5.69; pIC50 (Mpro; Origin ChEMBL, ref ChEMBL): 5.69
CN1CC[C@@]2(C)c3cc(O)ccc3N(C)[C@@H]12 [CHEMBL1256915, C[C@]12c(cc(cc3)O)c3N(C)[C@H]1N(C)CC2, reference compound] |  |  | pIC50 ([1]; Origin ChEMBL, ref ChEMBL): 5.70; pIC50 (Mpro; Origin ChEMBL, ref ChEMBL): 5.70
COc1cc(C(=S)N2CCOCC2)ccc1O [CHEMBL1380480, COc(cc(cc1)C(N2CCOCC2)=S)c1O, reference compound] |  |  | pIC50 ([1]; Origin ChEMBL, ref ChEMBL): 5.88; pIC50 (Mpro; Origin ChEMBL, ref ChEMBL): 5.88
c1ccc2sc(SNC3CCCCC3)nc2c1 [CHEMBL1591074, C(CC1)CCC1NSc1nc(cccc2)c2s1, reference compound] |  |  | pIC50 ([1]; Origin ChEMBL, ref ChEMBL): 6.11; pIC50 (Mpro; Origin ChEMBL, ref ChEMBL): 6.11
CC(C)c1cc(CNc2nc(Nc3cc(C4CC4)[nH]n3)cc(N3CCN(C)CC3)n2)on1 [CHEMBL3545085, CC(C)c1noc(CNc2nc(N3CCN(C)CC3)cc(Nc3n[nH]c(C4CC4)c3)n2)c1, reference compound] |  |  | pIC50 ([1]; Origin ChEMBL, ref ChEMBL): 5.83; pIC50 (Mpro; Origin ChEMBL, ref ChEMBL): 5.83
O=c1sn(-c2cccc3ccccc23)c(=O)n1Cc1ccccc1 [CHEMBL3545157, O=C(N1Cc2ccccc2)N(c2cccc3ccccc23)SC1=O, reference compound] |  |  | pIC50 ([1]; Origin ChEMBL, ref ChEMBL): 6.94; pIC50 (Mpro; Origin ChEMBL, ref ChEMBL): 6.94
Cc1ccc(N(Cc2cccc(Cl)c2)C(=O)Cn2nnc3ccccc32)cc1 [CHO-MSK-00c5269a-1, Cc(cc1)ccc1N(Cc1cccc(Cl)c1)C(Cn1nnc2c1cccc2)=O, reference compound] | 5.63 | 5.55 | 
O=C(Nc1cncc2ccccc12)N(CCC1CCCCC1)c1cccc(Cl)c1 [EDJ-MED-c314995a-1, O=C(Nc1cncc2ccccc12)N(CCC1CCCCC1)c1cccc(Cl)c1, reference compound] | 6.58 | 6.21 | 
C[C@@H]1C[C@@H](C(=O)Nc2cncc3ccccc23)c2cc(Cl)ccc2O1 [EDJ-MED-e4b030d8-2, C[C@H](C[C@H]1C(Nc2cncc3ccccc23)=O)Oc(cc2)c1cc2Cl, reference compound] | 6.64 | 6.42 | 
COC(=O)c1c(C)n(S(C)(=O)=O)c2ccc(N(C(=O)c3ccco3)S(C)(=O)=O)cc12 [LON-WEI-4d77710c-11, Cc1c(C(OC)=O)c(cc(cc2)N(C(c3ccco3)=O)S(C)(=O)=O)c2n1S(C)(=O)=O, reference compound] | 6.03 | 6.20 | 
O=C(O)[C@@H](c1ccccc1)N1Cc2ccccc2C1=O [LON-WEI-4d77710c-19, OC([C@@H](c1ccccc1)N(Cc1c2cccc1)C2=O)=O, reference compound] | 5.75 | 5.83 | 
CCOC(=O)c1cc(-c2ccccc2)sc1NC(=O)Cc1csc(-c2ccccc2)n1 [LON-WEI-4d77710c-24, CCOC(c1c(NC(Cc2csc(-c3ccccc3)n2)=O)sc(-c2ccccc2)c1)=O, reference compound] | 5.33 | 5.44 | 
N#Cc1ccc(CN2CCC(C3CCNC3)CC2)cc1 (stereo not shown) [LON-WEI-4d77710c-32, N#Cc1ccc(CN(CC2)CCC2C2CNCC2)cc1, reference compound] | 5.69 | 5.77 | 
Cc1cc(C)c(C#N)c(Sc2ncnc3c2nnn3Cc2ccccc2)n1 [LON-WEI-4d77710c-73, Cc(cc(C)nc1Sc2ncnc3c2nnn3Cc2ccccc2)c1C#N, reference compound] | 6.19 | 6.34 | 
O=C(CCl)N1CCN(S(=O)(=O)C2=CC[SH]=C2)CC1 [MAK-UNK-d4768348-1, O=C(CCl)N(CC1)CCN1S(C1=CCS=C1)(=O)=O] | 5.79 |  | 

Compound | pIC50 [1, 2] | pIC50 (Mpro; [2]) | also measured
COc1cccc2[nH]c(=O)cc(C(=O)N3CCN(c4cccc(Cl)c4)CC3)c12 [MAT-POS-3b536971-2, COc(cccc1N2)c1C(C(N(CC1)CCN1c1cccc(Cl)c1)=O)=CC2=O, reference compound] | 5.33 | 5.49 | 
C[C@@H]1C[C@H](C(=O)Nc2cncc3ccccc23)c2cc(Cl)ccc2O1 [MAT-POS-8a69d52e-2, C[C@H](C[C@@H]1C(Nc2cncc3ccccc23)=O)Oc(cc2)c1cc2Cl, reference compound] | 6.17 | 5.78 | 
O=C(Cc1cc(Cl)cc(Oc2cccnc2)c1)Nc1cncc2ccccc12 [MAT-POS-9ff17035-3, O=C(Cc1cc(Cl)cc(Oc2cnccc2)c1)Nc1cncc2ccccc12, reference compound] | 5.87 | 5.85 | 
O=C(c1cncc2ccccc12)N1CCN(c2cccc(Cl)c2)CC1 [MAT-POS-54c4bf04-3, O=C(c1cncc2ccccc12)N(CC1)CCN1c1cccc(Cl)c1, reference compound] | 5.79 | 5.91 | 
O=C(Cc1cncc2ccccc12)N(CCC1CCCCC1)c1cccc(Cl)c1 [MAT-POS-173a45da-1, O=C(Cc1cncc2ccccc12)N(CCC1CCCCC1)c1cccc(Cl)c1, reference compound] | 5.68 | 5.80 | 
COc1ccc(C2CC(c3cccs3)=NN2C(=O)CCl)cc1OC (stereo not shown) [MAT-POS-916a2c5a-1, COc(ccc(C(C1)N(C(CCl)=O)N=C1c1cccs1)c1)c1OC] | 5.73 |  | 
O=c1oc(Nc2ccccc2)nc2ccccc12 [MAT-POS-ea426761-13, O=C1OC(Nc2ccccc2)=Nc2c1cccc2, reference compound] | 5.80 | 6.01 | 
CC(C)(C)c1ccc(N(C(=O)c2c[nH]cn2)C(C(=O)NCCc2cccc(F)c2)c2cccnc2)cc1 (stereo not shown) [MAT-POS-f2460aef-3, CC(C)(C)c(cc1)ccc1N(C(C(NCCc1cccc(F)c1)=O)c1cnccc1)C(c1c[nH]cn1)=O, reference compound] | 6.54 | 6.17 | 
CC(C)(C)c1ccc(N(C(=O)c2ccc(Cl)o2)C(C(=O)NCCc2cccc(F)c2)c2cccnc2)cc1 (stereo not shown) [MAT-POS-f2460aef-4, CC(C)(C)c(cc1)ccc1N(C(C(NCCc1cc(F)ccc1)=O)c1cnccc1)C(c(o1)ccc1Cl)=O, reference compound] | 6.50 | 6.38 | 
O=C(CCl)N1CCN(Cc2cccc(Cl)c2)CC1 [MED-COV-4280ac29-15, O=C(CCl)N1CCN(Cc2cccc(Cl)c2)CC1] | 5.55 |  | 
COc1ccc(C2CC(c3ccccc3)=NN2C(=O)CCl)cc1OC (stereo not shown) [MED-COV-4280ac29-30, COc(ccc(C(C1)N(C(CCl)=O)N=C1c1ccccc1)c1)c1OC] | 6.27 |  | 
COCc1cc(Cl)cc(CN2CCN(C(=O)CCl)CC2)c1 [MED-COV-4280ac29-33, COCc1cc(CN(CC2)CCN2C(CCl)=O)cc(Cl)c1] | 5.32 |  | 
COCCc1ccc(Cl)cc1CN1CCN(C(=O)CCl)CC1 [MED-COV-4280ac29-37, COCCc(cc1)c(CN(CC2)CCN2C(CCl)=O)cc1Cl] | 5.66 |  | 
NS(=O)(=O)CCc1ccccc1CN1CCN(C(=O)CCl)CC1 [MIH-UNI-e573136b-5, NS(CCc1c(CN(CC2)CCN2C(CCl)=O)cccc1)(=O)=O] | 5.57 |  | 
COc1ccc2c(c1)CN(C(=O)CCl)C(c1ccccc1)C2 (stereo not shown) [NAU-LAT-64f4b287-4, COc1cc(CN(C(C2)c3ccccc3)C(CCl)=O)c2cc1] | 5.43 |  | 
Cc1cc(Cl)cc(CC2CCN(C(=O)CCl)CC2)c1 [NIR-THE-0d6461ce-8, Cc1cc(Cl)cc(CC(CC2)CCN2C(CCl)=O)c1] | 5.45 |  | 
N#Cc1cccc(C2CN(C(=O)CCl)Cc3ccccc32)c1 (stereo not shown) [NIR-THE-c331be7a-2, N#Cc1cccc(C(CN(C2)C(CCl)=O)c3c2cccc3)c1] | 5.93 |  | 
Cc1cccc(C2CN(C(=O)CCl)Cc3ccccc32)c1 (stereo not shown) [NIR-THE-c331be7a-6, Cc1cccc(C(CN(C2)C(CCl)=O)c3c2cccc3)c1] | 5.70 |  | 
O=C(CCl)N1CCN(Cc2cc(Cl)cc(Cl)c2)CC1 [PAU-UNI-8cdd41c7-1, O=C(CCl)N1CCN(Cc2cc(Cl)cc(Cl)c2)CC1] | 5.72 |  | 
O=C(CCl)N1CCN(C(c2ccccc2)c2ccccc2)CC1 [SIM-SYN-f15aaa3a-1, O=C(CCl)N(CC1)CCN1C(c1ccccc1)c1ccccc1] | 5.70 |  | 
Cc1cc(C(=O)CCl)c(C)n1CC1COc2ccccc2O1 (stereo not shown) [TAT-ENA-80bfd3e5-32, Cc1cc(C(CCl)=O)c(C)n1CC1Oc(cccc2)c2OC1] | 5.55 |  | 
Cc1ccncc1NC(=O)Cc1cc(Cl)cc(OC2CC(=O)N2)c1 (stereo not shown) [TRY-UNI-2eddb1ff-7, Cc(ccnc1)c1NC(Cc1cc(Cl)cc(OC(C2)NC2=O)c1)=O] | 5.44 |  | 
O=C1OC(c2cccs2)=N/C1=C\c1ccc(N2CCOCC2)s1 [MAT-POS-fa06b69f-6] | 6.16 | 6.15 | 
